Holding throughout (assay type): cell-based
Assay [1] relates to human iPSC-derived microglia treated with 5 μM soluble Aβ species. Put plainly: Microglia plaque formation (Methoxy-X04-positive structures) with dynamin inhibitors. The conditions noted are these: 0.6 μM for 24 h. The method, then: Error bars+/−s.e.m. and n=4 wells; ANOVA ***P<0.001, **P<0.01.
iPSC derived microglia were obtained and screened for microglia marker expression. iPSC microglia were then differentiated. Briefly, iPSCs were treated with BMP, FGF and activin for 2-4 days to induce mesoderm fate, then treated with VEGF and supportive hematopoietic cytokines for 6-10 days to generate hematopoietic progenitors (HPCs). HPCs were seeded onto matrigel-coated flasks, and treated with IL-34, IDE1 (TGF-β1 agonist), and M-CSF for 3-4 weeks to differentiate into microglia. Human iPSC microglia were validated by immunostaining of the following markers: Goat anti-TREM2 (1:500), Mouse anti-MERTK (1:500), Rabbit anti-IBA1 (1:1000), Rabbit anti-TMEM119 (1:500), CD33 (1:500), CX3CR1 (1:500), CD64 (1:500), P2RY12 (1:500), CD32 (1:500), PU.1 (1:500).
To further confirm time-lapsed result, an immunostaining time-course study was performed. Microglia took up Aβs within 30 minutes (FIG. 14D). After 6 hours, small internalized puncta disappeared and a larger, faintly X04 positive, Aβ42 aggregate appeared at the edge near each cell (FIG. 14D). After 1 day, larger Aβ42 aggregates with higher X04 staining intensity were seen next to microglia, and additional microglia began to surround these aggregates. At 4 days X04 dye positive plaque structures were present with surrounding microglia. […]

Assay [2] concerns Aβ42 oligomer-induced neural toxicity in human iPSC neurons. Nature of the assay: Hit validation by IC50 curves in double culture (MAP2, Synapsin 1/2, CUX2, NFL-H). The following applies: dose response. The method, then:
(§1) Error bars+/−s.e.m. and n=4 wells. IC50 curves were fitted by Prism software.
as §1
Error bars+/−s.e.m. and n=4 wells. IC50 curves were fitted using Prism software.
To further validate this pathway, several known inhibitors of kinases in the DLK signaling pathway were tested to determine whether they could also be neuroprotective in the AD model.

The subject of assay [3] is human iPSC neurons, astrocytes and microglia treated with 5 μM sAβ42s. Put plainly: Focused small molecule screen, triple culture (neuron, astrocyte, microglia), rescue from sAβ42s toxicity. The conditions noted are these: for percent rescue from sAβ42s toxicity at 0.78 µM / percent rescue from sAβ42s toxicity at 3.13 µM / percent rescue from sAβ42s toxicity at 12.5 µM: Homo sapiens, iPSC. Put shortly: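 A hit was any compound giving ≥30% rescue of dendrite area (MAP2), synapse count, CUX2 cell count or axon area when dosed against 5 μM sAβ42s toxicity. Testing used iPSC-derived double (neuron/astrocyte) or triple (plus microglia) cultures, at four concentrations of 50, 25, 12.5 and 6.25 μM for double and 50, 12.5, 3.1 and 0.78 μM for triple cultures.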

Assay [4] deals with human iPSC neurons and astrocytes treated with 5 μM sAβ42s. Put plainly: Focused small molecule screen, double culture (neuron, astrocyte), rescue from sAβ42s toxicity, high content imaging. The following applies: double culture, 5 μM sAβ42s; for percent rescue from sAβ42s toxicity at 6.25 µM / percent rescue from sAβ42s toxicity at 12.5 µM / percent rescue from sAβ42s toxicity at 25 µM: Homo sapiens, iPSC. Put shortly:
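Human iPSC neuron–astrocyte cultures given 5 μM sAβ42 oligomers plus compounds at 50, 25, 12.5 and 6.25 μM (10× additions). Fixed cells immunostained for MAP2, synapsin 1/2, CUX2 and beta III tubulin, imaged by confocal high-content microscopy; % rescue computed, ≥30% in any readout scored as hit.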

For assay [5], the system named is human iPSC-derived neurons. Nature of the assay: 21-day time course of single doses of soluble Aβ42 species on iPSC neurons. The following applies: 1.25 μM.
Procedure: To investigate whether AD pathologies can be studied in a controlled, in vitro system of human neurons, cultured human iPSC-derived neurons were treated with synthetic Aβ42 oligomers, prepared by oligomerization of Aβ42 monomers at 4° C. following previously published protocols (FIG. 2A; following Stine et al., 2011). Briefly, AggreSure™ β-Amyloid (1-42), human monomers (Anaspec) were resuspended in DMSO followed by PBS to form a 100 μM solution. Aβ42 monomers were subsequently incubated at 4° C. for 24 hours, then frozen at −80° C. to stop the oligomerization process. Five to six lots of Aβ42 monomers were screened at time and assessed for neurotoxic and the degree of toxicity. […] For fluorescent Aβ42 oligomer experiments, Beta-Amyloid (1-42), HiLyte™ Fluor 555-labeled, Human (Anaspec) was used. For pHrodo experiments, Beta-Amyloid (1-42) buman was labeled with pHrodo™ Green AM Intracellular pH Indicator (Invitrogen) according to manufacturer's protocol.
Prior to experimentation, media volume in wells containing neurons was equalized with liquid handling automation (Bravo) in order to ensure precise control of concentrations. All Aβ42 oligomers, anti-Aβ, small molecules, inflammatory cytokines were prepared at 10× concentration and added to Neuronal Culture Media at an appropriate volume. […]
Assay [6] concerns primary rat cortical neurons. Nature of the assay: Aβ42 oligomer toxicity in primary rat cortical neurons. The conditions noted are these: several lots. Here is the method:
Error bars+/−s.e.m. and n=4 wells.
The preps were determined to contain a heterogeneous mixture of both soluble oligomer and fibrils, and thus were referred to as “soluble Aβ42 species” (Aps).

Read-outs that look alike come from different tables or passages of the source.

With `O=C(N/N=C/c1ccc(O)c(O)c1)c1cc2ccccc2cc1O` [Dynasore], in assay [1], the “decrease of plaque formation (Methoxy-X04-positive plaque-like structures)” value is “approximately 4 fold”.

As to `CCCCCCCCNC(=O)/C(C#N)=C/c1cn(CCCN(C)C)c2ccccc12` [Dynole 34-2], the “decrease of plaque formation (Methoxy-X04-positive plaque-like structures)” value in assay [1] was “approximately 4 fold”.

Take `Nc1ncc(C(=O)NC2CN(C(=O)C3CC3)C2)c2ccc(-c3cccc(F)c3)nc12` [GNE-495]: the “neuronal protection against Aβ” value in assay [2] was “conferred neuronal protection against Aβ in a dose-dependent manner”.

As for `Cc1cc(NC(=O)c2cccc(NC(=O)/C=C/CN(C)C)c2)ccc1Nc1nccc(-c2cccnc2)n1` [JNK-IN-8], the “neuronal protection against Aβ” value in assay [2] is “conferred neuronal protection against Aβ in a dose-dependent manner”.

On to `Nc1ccc(-c2cnc(N)c(-c3ccc(Cl)cc3)c2)cn1` [PF06260933], for which the “neuronal protection against Aβ” value in assay [2] is listed as “conferred neuronal protection against Aβ in a dose-dependent manner”.

Take `CCN(CC)CCNC(=O)c1c(C)[nH]c(/C=C2\C(=O)Nc3ccc(F)cc32)c1C` [SU 11248]: in assay [3] (0.78 μM compound), the “% B3T rescue” value is listed as 69%, the “% MAP2 rescue” value came to 73% and the “% Synapse rescue” value came out at 68%. In addition, in assay [3] (3.13 μM compound), the “% B3T rescue” value turned out to be 74%, the “% MAP2 rescue” value stood at 88% and the “% Synapse rescue” value was 77%. Besides, in assay [4] (25 μM compound), the “% B3T rescue” value was −19%, the “% Cux2 rescue” value was 59%, the “% MAP2 rescue” value is listed as 16% and the “% Synapse rescue” value is 4%. Besides, in assay [4] (50 μM compound), the “% B3T rescue” value is given as 4%, the “% Cux2 rescue” value is reported as 115%, the “% MAP2 rescue” value was found to be 7% and the “% Synapse rescue” value stood at 21%.

`CN1CCN(CCOc2cc(OC3CCOCC3)c3c(Nc4c(Cl)ccc5c4OCO5)ncnc3c2)CC1` [Saracatinib (AZD0530), Saracatinib]: the percent rescue from sAβ42s toxicity at 0.78 µM was found to be 99% in assay [3] (0.78 μM compound, read-out: % B3T rescue); 72% in assay [3] (0.78 μM compound, read-out: % MAP2 rescue); 65% in assay [3] (0.78 μM compound, read-out: % Synapse rescue). For the same compound, the percent rescue from sAβ42s toxicity at 3.13 µM in assay [3] (3.13 μM compound, read-out: % B3T rescue) amounted to 99%; in assay [3] (3.13 μM compound, read-out: % MAP2 rescue), 73%; in assay [3] (3.13 μM compound, read-out: % Synapse rescue), 65%. The percent rescue from sAβ42s toxicity at 12.5 µM was 35% in assay [3] (12.50 μM compound, read-out: % B3T rescue); -12% in assay [3] (12.50 μM compound, read-out: % MAP2 rescue); -2% in assay [3] (12.50 μM compound, read-out: % Synapse rescue); 56% in assay [4] (12.5 μM compound, read-out: % B3T rescue); 13% in assay [4] (12.5 μM compound, read-out: % Cux2 rescue); 71% in assay [4] (12.5 μM compound, read-out: % MAP2 rescue). In addition, the percent rescue from sAβ42s toxicity at 12.5 µM in assay [4] (12.5 μM compound, read-out: % Synapse rescue) is 34%. Further, the percent rescue from sAβ42s toxicity at 6.25 µM in assay [4] (6.25 μM compound, read-out: % B3T rescue) stood at 62%; in assay [4] (6.25 μM compound, read-out: % Cux2 rescue) it was 7%; in assay [4] (6.25 μM compound, read-out: % MAP2 rescue), 61%; in assay [4] (6.25 μM compound, read-out: % Synapse rescue), 32%. The percent rescue from sAβ42s toxicity at 25 µM in assay [4] (25 μM compound, read-out: % B3T rescue) came out at 30%; in assay [4] (25 μM compound, read-out: % Cux2 rescue) it was 18%; in assay [4] (25 μM compound, read-out: % MAP2 rescue), 65%; in assay [4] (25 μM compound, read-out: % Synapse rescue), 10%.

For the compound `Cc1cc(Nc2cc(N3CCN(C)CC3)nc(Sc3ccc(NC(=O)C4CC4)cc3)n2)n[nH]1` [VX-680], the “neuronal protection against Aβ” value in assay [2] is reported as “conferred neuronal protection against Aβ in a dose-dependent manner”.

In the case of MDL 28170, the “% B3T rescue” value in assay [3] (0.78 μM compound) is listed as 30%; in assay [3] (12.50 μM compound) it was 33%; in assay [3] (50.00 μM compound), 73%; in assay [4] (6.25 μM compound), 18%; in assay [4] (12.5 μM compound), 22%; in assay [4] (25 μM compound), 25%. Also, the “% B3T rescue” value in assay [4] (50 μM compound) is given as 47%. The “% MAP2 rescue” value in assay [3] (0.78 μM compound) is 19%; in assay [3] (12.50 μM compound), 31%; in assay [3] (50.00 μM compound), 47%; in assay [4] (6.25 μM compound) it was 33%; in assay [4] (12.5 μM compound), 33%; in assay [4] (25 μM compound), 36%. In addition, the “% MAP2 rescue” value in assay [4] (50 μM compound) is reported as 26%. Further, the “% Synapse rescue” value in assay [3] (0.78 μM compound) is given as 10%; in assay [3] (12.50 μM compound), 8%; in assay [3] (50.00 μM compound), 41%; in assay [4] (6.25 μM compound) it was 10%; in assay [4] (12.5 μM compound), 9%; in assay [4] (25 μM compound), 11%. In addition, the “% Synapse rescue” value in assay [4] (50 μM compound) was found to be 23%. In addition, the “% Cux2 rescue” value in assay [4] (6.25 μM compound) turned out to be 81%; in assay [4] (12.5 μM compound), 74%; in assay [4] (25 μM compound), 84%; in assay [4] (50 μM compound) it was 57%.

As to “soluble Aβ42 species: heterogeneous mixture of soluble oligomer and fibrils made from synthetic Aβ42 monomers at 4° C.”, the “dendrite or axon reduction” value in assay [5] is given as “no effect on dendrite or axon reduction”. The “reduction in dendrites or synapses” value in assay [6] is “did not show reduction in dendrites or synapses”.

(Values after patent publication US20230014181A1, “CULTURE SYSTEM AND METHODS FOR IMPROVED MODELING OF NEUROLOGICAL CONDITIONS” (Genentech, Inc., priority 2021, published 2023).)
